# Laboratory results: ChEMBL document CHEMBL1201862, “PubChem BioAssay data set” (2004)
#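 Five compound concentrations were applied to cells in 96-well plates for 48 hours; endpoints were derived by simple linear interpolation of the resulting dose-response curve. GI50: concentration for 50% inhibition of growth.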 Active and inactive are the calls of the source. No stated cut-off is given here; in the data, active = GI50 up to about 1.1 µM and inactive = higher.
# Experiments:
# Assay in all cases: NCI anticancer screen, dose series, 48 h
# RXF 393 = test system: RXF 393
# BT-549 = test system: BT-549
# CAKI-1 = test system: CAKI-1
# HL-60 = test system: HL-60
# UACC-62 = test system: UACC-62
# MCF7 = test system: MCF7
# Malme-3M = test system: Malme-3M
# SK-MEL-2 = test system: SK-MEL-2
# HOP-62 = test system: HOP-62
# MDA-MB-231 = test system: MDA-MB-231
# COLO 205 = test system: COLO 205
# SF-539 = test system: SF-539
# HOP-92 = test system: HOP-92
# TK-10 = test system: TK-10
# MOLT-4 = test system: MOLT-4
# OVCAR-5 = test system: OVCAR-5
# NCI/ADR-RES = test system: NCI/ADR-RES
# SK-MEL-5 = test system: SK-MEL-5
# M14 = test system: M14
# OVCAR-4 = test system: OVCAR-4
Structure (SMILES),GI50 (RXF 393),GI50 (BT-549),GI50 (CAKI-1),GI50 (HL-60),GI50 (UACC-62),GI50 (MCF7),GI50 (Malme-3M),GI50 (SK-MEL-2),GI50 (HOP-62),GI50 (MDA-MB-231),GI50 (COLO 205),GI50 (SF-539),GI50 (HOP-92),GI50 (TK-10),GI50 (MOLT-4),GI50 (OVCAR-5),GI50 (NCI/ADR-RES),GI50 (SK-MEL-5),GI50 (M14),GI50 (OVCAR-4)
COc1ccc2c(c1)OC(c1cccnc1)C(c1ccccc1)C2=O (centres undefined),> 100 µM (inactive),> 100 µM (inactive),> 100 µM (inactive),> 100 µM (inactive),> 100 µM (inactive),> 100 µM (inactive),> 100 µM (inactive),> 100 µM (inactive),25.9 µM (inactive),> 100 µM (inactive),> 100 µM (inactive),> 100 µM (inactive),49.5 µM (inactive),> 100 µM (inactive),> 100 µM (inactive),> 100 µM (inactive),> 100 µM (inactive),> 100 µM (inactive),> 100 µM (inactive),> 100 µM (inactive)
O=C1OC(c2ccc(O)c(-c3ccccc3)c2)(c2ccc(O)c(-c3ccccc3)c2)c2c(Cl)c(Cl)c(Cl)c(Cl)c21,> 100 µM (inactive),> 100 µM (inactive),> 100 µM (inactive),0.177 µM (active),> 100 µM (inactive),> 100 µM (inactive),> 100 µM (inactive),> 100 µM (inactive),> 100 µM (inactive),> 100 µM (inactive),> 100 µM (inactive),> 100 µM (inactive),> 100 µM (inactive),> 100 µM (inactive),> 100 µM (inactive),> 100 µM (inactive),> 100 µM (inactive),> 100 µM (inactive),> 100 µM (inactive),> 100 µM (inactive)
OCCN1CCN(c2nc(N3CCCC3)c3nc(Cl)c(NCc4ccccc4)nc3n2)CC1,1.32 µM (inactive),6.84 µM (inactive),9.44 µM (inactive),3.81 µM (inactive),4.65 µM (inactive),4.31 µM (inactive),6.56 µM (inactive),6.92 µM (inactive),3.58 µM (inactive),9.82 µM (inactive),2.47 µM (inactive),5.81 µM (inactive),5.16 µM (inactive),6.85 µM (inactive),3.19 µM (inactive),13.1 µM (inactive),10.9 µM (inactive),3.51 µM (inactive),3.03 µM (inactive),11.2 µM (inactive)
CC1CCCN(CP(=O)(c2ccccc2)c2ccccc2)C1 (centres undefined),> 100 µM (inactive),> 100 µM (inactive),> 100 µM (inactive),13.6 µM (inactive),> 100 µM (inactive),> 100 µM (inactive),> 100 µM (inactive),> 100 µM (inactive),> 100 µM (inactive),> 100 µM (inactive),> 100 µM (inactive),> 100 µM (inactive),> 100 µM (inactive),> 100 µM (inactive),–,> 100 µM (inactive),> 100 µM (inactive),> 100 µM (inactive),> 100 µM (inactive),94.4 µM (inactive)
CCNC(=O)C1CCCN1C(=O)C(CCCN=C(N)N)NC(=O)C(CC(C)C)NC(=O)C(Cc1c[nH]c2ccccc12)NC(=O)C(Cc1ccc(O)cc1)NC(=O)C(CO)NC(=O)C(Cc1c[nH]c2ccccc12)NC(=O)C(Cc1c[nH]cn1)NC(=O)C1CCC(=O)N1 (centres undefined),> 100 µM (inactive),> 100 µM (inactive),> 100 µM (inactive),–,> 100 µM (inactive),> 100 µM (inactive),> 100 µM (inactive),> 100 µM (inactive),> 100 µM (inactive),> 100 µM (inactive),> 100 µM (inactive),> 100 µM (inactive),> 100 µM (inactive),> 100 µM (inactive),> 100 µM (inactive),> 100 µM (inactive),> 100 µM (inactive),> 100 µM (inactive),> 100 µM (inactive),> 100 µM (inactive)
NNC(=O)CNc1cccc(Br)c1,> 100 µM (inactive),> 100 µM (inactive),> 100 µM (inactive),74.8 µM (inactive),> 100 µM (inactive),> 100 µM (inactive),> 100 µM (inactive),> 100 µM (inactive),> 100 µM (inactive),> 100 µM (inactive),> 100 µM (inactive),> 100 µM (inactive),> 100 µM (inactive),> 100 µM (inactive),–,> 100 µM (inactive),> 100 µM (inactive),> 100 µM (inactive),> 100 µM (inactive),> 100 µM (inactive)
O=[N+]([O-])c1cccc(Cl)c1Oc1ccc(S(=O)(=O)N/C(=N\O)Nc2ccc(Cl)cc2)cc1,13.8 µM (inactive),14.5 µM (inactive),9.46 µM (inactive),–,12.7 µM (inactive),13.3 µM (inactive),13.1 µM (inactive),13 µM (inactive),20.2 µM (inactive),17.7 µM (inactive),17.1 µM (inactive),14.6 µM (inactive),4.76 µM (inactive),14.8 µM (inactive),3.11 µM (inactive),17 µM (inactive),20.3 µM (inactive),11.9 µM (inactive),14.2 µM (inactive),7.1 µM (inactive)
Cc1cc(S(=O)(=O)[N-]C(=C(C#N)C#N)[n+]2ccc(N(C)C)cc2)c(SCC(=O)O)cc1Cl,> 100 µM (inactive),> 100 µM (inactive),> 100 µM (inactive),> 100 µM (inactive),> 100 µM (inactive),> 100 µM (inactive),22.6 µM (inactive),> 100 µM (inactive),> 100 µM (inactive),> 100 µM (inactive),> 100 µM (inactive),> 100 µM (inactive),10 µM (inactive),> 100 µM (inactive),> 100 µM (inactive),> 100 µM (inactive),> 100 µM (inactive),> 100 µM (inactive),> 100 µM (inactive),> 100 µM (inactive)
CCOC(=O)c1ccc(NC(=O)O/N=C(/Cl)C(C)C)cc1,16.3 µM (inactive),14.9 µM (inactive),4.63 µM (inactive),1.23 µM (inactive),18.9 µM (inactive),1.98 µM (inactive),3.76 µM (inactive),15.1 µM (inactive),17 µM (inactive),19.5 µM (inactive),2.42 µM (inactive),18.6 µM (inactive),1.82 µM (inactive),16.4 µM (inactive),1.92 µM (inactive),17.6 µM (inactive),19 µM (inactive),16.1 µM (inactive),1.16 µM (inactive),14.5 µM (inactive)
C#C/C=C/CC1OC(C(Br)CC)CC(Br)C2CC1O2 (centres undefined),48.6 µM (inactive),38.9 µM (inactive),> 100 µM (inactive),34.1 µM (inactive),56.2 µM (inactive),40.2 µM (inactive),11.3 µM (inactive),> 100 µM (inactive),85.7 µM (inactive),> 100 µM (inactive),82 µM (inactive),> 100 µM (inactive),22.8 µM (inactive),> 100 µM (inactive),29.4 µM (inactive),> 100 µM (inactive),19.1 µM (inactive),89.3 µM (inactive),> 100 µM (inactive),37.8 µM (inactive)
C=CC[C@@]1([C@H](C=C)COCc2ccc(OC)cc2)CC[C@]2(C)OC(C)(C)[C@@H](c3ccccc3)N2C1=S,86.7 µM (inactive),40.7 µM (inactive),> 100 µM (inactive),22.4 µM (inactive),28.2 µM (inactive),31.1 µM (inactive),37.6 µM (inactive),23.5 µM (inactive),71.8 µM (inactive),46.2 µM (inactive),19.1 µM (inactive),95.3 µM (inactive),30 µM (inactive),52.7 µM (inactive),52.4 µM (inactive),50 µM (inactive),> 100 µM (inactive),25.2 µM (inactive),35.3 µM (inactive),40.7 µM (inactive)
Cc1cc(C)c2c(n1)S(=O)(=O)N(CCCN1CCN(c3cccc(C(F)(F)F)c3)CC1)c1c-2nn(C)c1C,> 100 µM (inactive),> 100 µM (inactive),43.1 µM (inactive),24 µM (inactive),58.7 µM (inactive),38.5 µM (inactive),> 100 µM (inactive),> 100 µM (inactive),> 100 µM (inactive),> 100 µM (inactive),26.1 µM (inactive),> 100 µM (inactive),45.3 µM (inactive),> 100 µM (inactive),10.8 µM (inactive),> 100 µM (inactive),53.3 µM (inactive),23.1 µM (inactive),43.9 µM (inactive),75.3 µM (inactive)
COC(=O)C1(Cc2ccccc2)Cc2cc3c(cc2C1=O)CCC3 (centres undefined),36.8 µM (inactive),43.7 µM (inactive),–,14.6 µM (inactive),33.4 µM (inactive),13.9 µM (inactive),22.5 µM (inactive),18.3 µM (inactive),80.5 µM (inactive),43.6 µM (inactive),19.5 µM (inactive),43.2 µM (inactive),11.6 µM (inactive),64 µM (inactive),17.1 µM (inactive),58.9 µM (inactive),30.5 µM (inactive),16.6 µM (inactive),20 µM (inactive),33.7 µM (inactive)
CN(/N=C(\C(=O)O)c1ccccc1)C1=NCCCCN1,> 100 µM (inactive),> 100 µM (inactive),> 100 µM (inactive),> 100 µM (inactive),> 100 µM (inactive),> 100 µM (inactive),> 100 µM (inactive),> 100 µM (inactive),> 100 µM (inactive),> 100 µM (inactive),> 100 µM (inactive),> 100 µM (inactive),> 100 µM (inactive),> 100 µM (inactive),> 100 µM (inactive),> 100 µM (inactive),> 100 µM (inactive),> 100 µM (inactive),–,> 100 µM (inactive)
